Legend:
[1] = tested on: TRZAWR Wheat, Winter, cv Riband; test: Postemergence herbicidal evaluation, TRZAWR; assay type: in vivo, Triticum aestivum; set-up: scale not given here; conditions: postemergence spray, rated about two-three weeks after treatment
Procedure, shortened: (§1)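 Postemergence spray, 40 psi nozzle, on ~2-week seedlings. Carrier: acetone/water 80/20, 1.0% methylated seed oil; dose ~0.006–0.400 kg/ha. Scored visually at 2–3 weeks.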

[2] = tested on: AMBEL Ragweed, Common; test: Postemergence herbicidal evaluation, AMBEL; assay type: in vivo, Ambrosia artemisifolia, L.; set-up: scale not given here; conditions: postemergence spray, rated about two-three weeks after treatment
Procedure, shortened: as §1

[3] = tested on: SETVI Foxtail, Green; test: Postemergence herbicidal evaluation, SETVI; assay type: in vivo, Setaria viridis, (L.) Beau; set-up: scale not given here; conditions: postemergence spray, rated about two-three weeks after treatment
Procedure, shortened: as §1

[4] = tested on: GLXMAW Soybean, Williams; test: Preemergence herbicidal evaluation, GLXMAW; assay type: in vivo, Glycine max, (L.) Merr. cv Williams; set-up: scale not given here; conditions: preemergence
Procedure, shortened: (§2)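 Seeds mixed with potting soil in cups, then sprayed preemergence with aqueous acetone test solution at about 0.013 to 0.800 kg per hectare equivalent. Cups kept under standard greenhouse care; plants rated on a visual scale four to five weeks after treatment.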

[5] = tested on: ORYSAT Rice, Tebonnet; test: Preemergence herbicidal evaluation, ORYSAT; assay type: in vivo, Oryza sativa, (L.); set-up: scale not given here; conditions: preemergence
Procedure, shortened: as §2

[6] = tested on: GLXMAW Soybean, Williams; test: Postemergence herbicidal evaluation, GLXMAW; assay type: in vivo, Glycine max, (L.) Merr. cv Williams; set-up: scale not given here; conditions: postemergence spray, rated about two-three weeks after treatment
Procedure, shortened: as §1

[7] = tested on: CASOB Sicklepod; test: Postemergence herbicidal evaluation, CASOB; assay type: in vivo, Cassia obtusifolia, L.; set-up: scale not given here; conditions: postemergence spray, rated about two-three weeks after treatment
Procedure, shortened: as §1

[8] = tested on: CHEAL Lambsquarters, Common; test: Postemergence herbicidal evaluation, CHEAL; assay type: in vivo, Chenopodium album, L.; set-up: scale not given here; conditions: postemergence spray, rated about two-three weeks after treatment
Procedure, shortened: as §1

[9] = tested on: GALAP Galium; test: Postemergence herbicidal evaluation, GALAP; assay type: in vivo, Galium aparine; set-up: scale not given here; conditions: postemergence spray, rated about two-three weeks after treatment
Procedure, shortened: as §1

[10] = tested on: TRZAWR Wheat, Winter, cv Riband; test: Preemergence herbicidal evaluation, TRZAWR; assay type: in vivo, Triticum aestivum; set-up: scale not given here; conditions: preemergence
Procedure, shortened: as §2

[11] = tested on: CASOB Sicklepod; test: Preemergence herbicidal evaluation, CASOB; assay type: in vivo, Cassia obtusifolia, L.; set-up: scale not given here; conditions: preemergence
Procedure, shortened: as §2

[12] = tested on: IPOHE Morningglory, Ivyleaf; test: Postemergence herbicidal evaluation, IPOHE; assay type: in vivo, Ipomoea hederacea, (L.) Jacq.; set-up: scale not given here; conditions: postemergence spray, rated about two-three weeks after treatment
Procedure, shortened: as §1

[13] = tested on: ECHOG Barnyardgrass; test: Preemergence herbicidal evaluation, ECHOG; assay type: in vivo, Echinochloa crus-galli, (L.) Beau; set-up: scale not given here; conditions: preemergence
Procedure, shortened: as §2

[14] = tested on: ORYSAT Rice, Tebonnet; test: Postemergence herbicidal evaluation, ORYSAT; assay type: in vivo, Oryza sativa, (L.); set-up: scale not given here; conditions: postemergence spray, rated about two-three weeks after treatment
Procedure, shortened: as §1

[15] = tested on: IPOHE Morningglory, Ivyleaf; test: Preemergence herbicidal evaluation, IPOHE; assay type: in vivo, Ipomoea hederacea, (L.) Jacq.; set-up: scale not given here; conditions: preemergence
Procedure, shortened: as §2

[16] = tested on: SETVI Foxtail, Green; test: Preemergence herbicidal evaluation, SETVI; assay type: in vivo, Setaria viridis, (L.) Beau; set-up: scale not given here; conditions: preemergence
Procedure, shortened: as §2

[17] = tested on: AMBEL Ragweed, Common; test: Preemergence herbicidal evaluation, AMBEL; assay type: in vivo, Ambrosia artemisifolia, L.; set-up: scale not given here; conditions: preemergence
Procedure, shortened: as §2

[18] = tested on: ZEAMX Corn, Field; test: Preemergence herbicidal evaluation, ZEAMX; assay type: in vivo, Zea mays, L. (Sammel-Bezeichnung); set-up: scale not given here; conditions: preemergence
Procedure, shortened: as §2

[19] = tested on: ECHOG Barnyardgrass; test: Postemergence herbicidal evaluation, ECHOG; assay type: in vivo, Echinochloa crus-galli, (L.) Beau; set-up: scale not given here; conditions: postemergence spray, rated about two-three weeks after treatment
Procedure, shortened: as §1

[20] = tested on: ABUTH Velvetleaf; test: Postemergence herbicidal evaluation, ABUTH; assay type: in vivo, Abutilon theophrasti, Medic.; set-up: scale not given here; conditions: postemergence spray, rated about two-three weeks after treatment
Procedure, shortened: as §1

[21] = tested on: CHEAL Lambsquarters, Common; test: Preemergence herbicidal evaluation, CHEAL; assay type: in vivo, Chenopodium album, L.; set-up: scale not given here; conditions: preemergence
Procedure, shortened: as §2

[22] = tested on: ABUTH Velvetleaf; test: Preemergence herbicidal evaluation, ABUTH; assay type: in vivo, Abutilon theophrasti, Medic.; set-up: scale not given here; conditions: preemergence
Procedure, shortened: as §2

[23] = tested on: ZEAMX Corn, Field; test: Postemergence herbicidal evaluation, ZEAMX; assay type: in vivo, Zea mays, L. (Sammel-Bezeichnung); set-up: scale not given here; conditions: postemergence spray, rated about two-three weeks after treatment
Procedure, shortened: as §1

[24] = tested on: GALAP Galium; test: Preemergence herbicidal evaluation, GALAP; assay type: in vivo, Galium aparine; set-up: scale not given here; conditions: preemergence
Procedure, shortened: as §2

COc1ccc(C)cc1-n1nnc2cc(F)c(-n3c(=O)cc(C(F)(F)F)[nH]c3=O)cc21 [Example 2, 3-[5-fluoro-1-(2-methoxy-5-methylphenyl)-1H-1,2,3-benzotriazol-6-yl]-6-(trifluoromethyl)-2,4(1H,3H)-pyrimidinedione]
melting point: 145 to 150 °C

CCc1ccc(-n2nnc3cc(F)c(-n4c(=O)cc(C(F)(F)F)[nH]c4=O)cc32)cc1 [Example 3, 3-[1-(4-ethylphenyl)-5-fluoro-1H-1,2,3-benzotriazol-6-yl]-6-(trifluoromethyl)-2,4(1H,3H)-pyrimidinedione]
melting point: 160 to 164 °C

CCc1cccc(-n2nnc3cc(F)c(-n4c(=O)cc(C(F)(F)F)[nH]c4=O)cc32)c1 [Example 13, 3-[1-(3-ethylphenyl)-5-fluoro-1H-1,2,3-benzotriazol-6-yl]-6-(trifluoromethyl)-2,4(1H,3H)-pyrimidinedione]
melting point: 160 °C

C=CCOc1ccc(C)cc1-n1nnc2cc(F)c(-n3c(=O)cc(C(F)(F)F)n(C)c3=O)cc21 [Example 42]
Postemergence herbicidal rating TRZAWR ([1]; 0.008 kg/ha): 2.5
Postemergence herbicidal rating TRZAWR ([1]; 0.016 kg/ha): 2.5
Postemergence herbicidal rating TRZAWR ([1]; 0.032 kg/ha): 3.0
Postemergence herbicidal rating TRZAWR ([1]; 0.062 kg/ha): 4.0
Postemergence herbicidal rating AMBEL ([2]; 0.008 kg/ha): 7.0
Postemergence herbicidal rating AMBEL ([2]; 0.016 kg/ha): 7.0
Postemergence herbicidal rating AMBEL ([2]; 0.032 kg/ha): 7.0
Postemergence herbicidal rating AMBEL ([2]; 0.062 kg/ha): 9.0
Postemergence herbicidal rating SETVI ([3]; 0.008 kg/ha): 0.0
Postemergence herbicidal rating SETVI ([3]; 0.016 kg/ha): 2.0
Postemergence herbicidal rating SETVI ([3]; 0.032 kg/ha): 9.0
Postemergence herbicidal rating SETVI ([3]; 0.062 kg/ha): 9.0
GLXMAW herbicidal rating ([4]; rate 0.016 kg/ha): 0.0
GLXMAW herbicidal rating ([4]; rate 0.032 kg/ha): 3.0
GLXMAW herbicidal rating ([4]; rate 0.062 kg/ha): 3.0
GLXMAW herbicidal rating ([4]; rate 0.125 kg/ha): 5.0
ORYSAT herbicidal rating ([5]; rate 0.016 kg/ha): 0.0
ORYSAT herbicidal rating ([5]; rate 0.032 kg/ha): 0.0
ORYSAT herbicidal rating ([5]; rate 0.062 kg/ha): 1.0
ORYSAT herbicidal rating ([5]; rate 0.125 kg/ha): 1.0
Postemergence herbicidal rating GLXMAW ([6]; 0.008 kg/ha): 5.0
Postemergence herbicidal rating GLXMAW ([6]; 0.016 kg/ha): 5.5
Postemergence herbicidal rating GLXMAW ([6]; 0.032 kg/ha): 7.0
Postemergence herbicidal rating GLXMAW ([6]; 0.062 kg/ha): 7.0
Postemergence herbicidal rating CASOB ([7]; 0.008 kg/ha): 0.0
Postemergence herbicidal rating CASOB ([7]; 0.016 kg/ha): 0.0
Postemergence herbicidal rating CASOB ([7]; 0.032 kg/ha): 4.0
Postemergence herbicidal rating CASOB ([7]; 0.062 kg/ha): 4.0
Postemergence herbicidal rating CHEAL ([8]; 0.008 kg/ha): 2.0
Postemergence herbicidal rating CHEAL ([8]; 0.016 kg/ha): 6.0
Postemergence herbicidal rating CHEAL ([8]; 0.032 kg/ha): 7.0
Postemergence herbicidal rating CHEAL ([8]; 0.062 kg/ha): 7.0
Postemergence herbicidal rating GALAP ([9]; 0.008 kg/ha): 1.0
Postemergence herbicidal rating GALAP ([9]; 0.016 kg/ha): 1.0
Postemergence herbicidal rating GALAP ([9]; 0.032 kg/ha): 1.0
Postemergence herbicidal rating GALAP ([9]; 0.062 kg/ha): 1.0
TRZAWR herbicidal rating ([10]; rate 0.016 kg/ha): 0.0
TRZAWR herbicidal rating ([10]; rate 0.032 kg/ha): 0.0
TRZAWR herbicidal rating ([10]; rate 0.062 kg/ha): 0.0
TRZAWR herbicidal rating ([10]; rate 0.125 kg/ha): 1.0
CASOB herbicidal rating ([11]; rate 0.016 kg/ha): 0.0
CASOB herbicidal rating ([11]; rate 0.032 kg/ha): 0.0
CASOB herbicidal rating ([11]; rate 0.062 kg/ha): 0.0
CASOB herbicidal rating ([11]; rate 0.125 kg/ha): 1.0
Postemergence herbicidal rating IPOHE ([12]; 0.008 kg/ha): 9.0
Postemergence herbicidal rating IPOHE ([12]; 0.016 kg/ha): 9.0
Postemergence herbicidal rating IPOHE ([12]; 0.032 kg/ha): 9.0
Postemergence herbicidal rating IPOHE ([12]; 0.062 kg/ha): 9.0
ECHCG herbicidal rating ([13]; rate 0.016 kg/ha): 1.0
ECHCG herbicidal rating ([13]; rate 0.032 kg/ha): 3.0
ECHCG herbicidal rating ([13]; rate 0.062 kg/ha): 3.0
ECHCG herbicidal rating ([13]; rate 0.125 kg/ha): 7.0
Postemergence herbicidal rating ORYSAT ([14]; 0.008 kg/ha): 2.0
Postemergence herbicidal rating ORYSAT ([14]; 0.016 kg/ha): 2.5
Postemergence herbicidal rating ORYSAT ([14]; 0.032 kg/ha): 2.5
Postemergence herbicidal rating ORYSAT ([14]; 0.062 kg/ha): 2.5
IPOHE herbicidal rating ([15]; rate 0.016 kg/ha): 0.0
IPOHE herbicidal rating ([15]; rate 0.032 kg/ha): 0.0
IPOHE herbicidal rating ([15]; rate 0.062 kg/ha): 0.0
IPOHE herbicidal rating ([15]; rate 0.125 kg/ha): 6.0
SETVI herbicidal rating ([16]; rate 0.016 kg/ha): 3.0
SETVI herbicidal rating ([16]; rate 0.032 kg/ha): 7.0
SETVI herbicidal rating ([16]; rate 0.062 kg/ha): 9.0
SETVI herbicidal rating ([16]; rate 0.125 kg/ha): 9.0
AMBEL herbicidal rating ([17]; rate 0.016 kg/ha): 0.0
AMBEL herbicidal rating ([17]; rate 0.032 kg/ha): 0.0
AMBEL herbicidal rating ([17]; rate 0.062 kg/ha): 1.0
AMBEL herbicidal rating ([17]; rate 0.125 kg/ha): 5.0
ZEAMX herbicidal rating ([18]; rate 0.016 kg/ha): 0.0
ZEAMX herbicidal rating ([18]; rate 0.032 kg/ha): 0.0
ZEAMX herbicidal rating ([18]; rate 0.062 kg/ha): 1.0
ZEAMX herbicidal rating ([18]; rate 0.125 kg/ha): 4.0
Postemergence herbicidal rating ECHCG ([19]; 0.008 kg/ha): 0.0
Postemergence herbicidal rating ECHCG ([19]; 0.016 kg/ha): 1.0
Postemergence herbicidal rating ECHCG ([19]; 0.032 kg/ha): 1.0
Postemergence herbicidal rating ECHCG ([19]; 0.062 kg/ha): 1.0
Postemergence herbicidal rating ABUTH ([20]; 0.008 kg/ha): 7.0
Postemergence herbicidal rating ABUTH ([20]; 0.016 kg/ha): 9.0
Postemergence herbicidal rating ABUTH ([20]; 0.032 kg/ha): 9.0
Postemergence herbicidal rating ABUTH ([20]; 0.062 kg/ha): 9.0
CHEAL herbicidal rating ([21]; rate 0.016 kg/ha): 9.0
CHEAL herbicidal rating ([21]; rate 0.032 kg/ha): 9.0
CHEAL herbicidal rating ([21]; rate 0.062 kg/ha): 9.0
CHEAL herbicidal rating ([21]; rate 0.125 kg/ha): 9.0
ABUTH herbicidal rating ([22]; rate 0.016 kg/ha): 7.0
ABUTH herbicidal rating ([22]; rate 0.032 kg/ha): 9.0
ABUTH herbicidal rating ([22]; rate 0.062 kg/ha): 9.0
ABUTH herbicidal rating ([22]; rate 0.125 kg/ha): 9.0
Postemergence herbicidal rating ZEAMX ([23]; 0.008 kg/ha): 5.0
Postemergence herbicidal rating ZEAMX ([23]; 0.016 kg/ha): 5.0
Postemergence herbicidal rating ZEAMX ([23]; 0.032 kg/ha): 4.5
Postemergence herbicidal rating ZEAMX ([23]; 0.062 kg/ha): 5.0
GALAP herbicidal rating ([24]; rate 0.016 kg/ha): 0.0
GALAP herbicidal rating ([24]; rate 0.032 kg/ha): 0.0
GALAP herbicidal rating ([24]; rate 0.062 kg/ha): 0.0
GALAP herbicidal rating ([24]; rate 0.125 kg/ha): 0.0

Source: patent US20020111274A1, “1-alkyl-3-[1-(substituted phenyl) benzotriazol-6-yl] uracils” (BASF Aktiengesellschaft, priority 2000, published 2002)
